From paper PMC10221314 (Pharmaceuticals, 2023) come the findings set out here.

In the assay the target is T1, FXR (Homo sapiens, UniProt Q96RI1).
T1 construct: a fusion plasmid of Gal4 DBD-NR-LBD, which included PPARα, PPARβ, PPARγ, RXRα, RXRβ, RXRγ, LXRα, LXRβ, GPBAR, PXR, and FXR; expressed in transfected cells; host or cells: HEK-293T
T1 sequence (Q96RI1 262-486 limits assumed): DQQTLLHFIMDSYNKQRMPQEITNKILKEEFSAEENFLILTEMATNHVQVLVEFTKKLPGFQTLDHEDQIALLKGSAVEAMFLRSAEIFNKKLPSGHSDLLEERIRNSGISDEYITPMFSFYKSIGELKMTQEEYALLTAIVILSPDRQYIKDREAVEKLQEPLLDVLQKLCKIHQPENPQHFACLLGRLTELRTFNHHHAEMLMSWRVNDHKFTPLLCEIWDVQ
Nature of the assay: Yeast one-hybrid assay of FXR antagonistic activity in HEK-293T cells. It counts as cell-based. Particulars: HEK-293T cells; CDCA (50 μM) as agonist; mean ± SE of three independent tests. The method, then: Cell counting: HEK-293T cells in logarithmic growth phase were digested with 0.25% trypsin, collected, and centrifuged. The trypsin-containing medium was discarded, and 2 mL of fresh phenol red-free DMEM medium containing 5% fetal bovine serum was added. The cells were then mixed with the medium to prepare a cell suspension and counted on a cell counting plate.
Cell plating: A determined number of cells were taken from the cell suspension, diluted with phenol red-free DMEM medium containing 5% fetal bovine serum, and plated at a concentration of 10,000 cells per well (100 µL medium) in a 96-well plate. The plate was then incubated at 37 °C and 5% CO2 for 24 h.
Cell transfection: Fresh phenol red-free DMEM medium was taken in a sterile environment, and the previously extracted pFXR-Binding plasmid and PG4.35[luc2P-9XGA4UAS-Hygro] plasmid were added. The mixture was stirred and allowed to stand at 23 °C for 3 min. Then, a 3% amount of transfection reagent was added to the mixture, and it was allowed to stand at 23 °C for 15 min. The mixture was then added to the 96-well plate at a volume of 10 µL per well and incubated at 37 °C in a 5% CO2 environment for 24 h.
The OA derivatives were prepared as 10 mM DMSO stock solutions and further diluted in a concentration gradient, with 10 µL added to each well. The final concentrations of the derivatives ranged from 10 µM to 0.03 µM, with 7 concentration gradients using […] dilution. The test was set with 3 duplicated wells.
Antagonism activity test: The firefly-Renilla Dual Fluorescence Assay Kit (Promega, #E2940, Madison, WI, USA) was used to measure the antagonism activity of the OA derivatives. Firstly, the firefly fluorescence reagent was added to the 96-well plate at a volume of 70 µL per well and shaken in darkness for 15 min. Then, the fluorescence intensity was measured at a wavelength of 645 ± 30 nm in a microplate reader (BioTek, Winooski, VT, USA). Next, the volume of Renilla reagent was added to the 96-well plate at a volume of 70 µL per well and shaken in darkness for 15 min. The fluorescence intensity was then measured at a wavelength of 525 ± 20 nm.
Data processing: The fluorescence data of firefly were divided by the fluorescence data of Renilla to remove errors, and the antagonism efficiency was calculated using the following formula: antagonism efficiency (%) = [1 − (FCompds. − FDMSO)/(FCDCA − FDMSO)] × 100%. In the formula, F represents fluorescence intensity. The antagonistic efficiency data were obtained as a concentration–effect curve using Graphpad Prism 8.0 software, and the corresponding IC50 value was calculated.

Broadly, the IC50 is the midpoint of a concentration-inhibition curve.

Where “and” joins values, the source holds several entries; their conditions need not be identical. Equal values may be shown once.

The molecule `CC1(C)CCC2(C(=O)O)CCC3(C)C(C(OC(=O)CCC(NC(=O)OC4CCCC4)C(=O)OC(C)(C)C)CC4C5(C)CCC(O)C(C)(C)C5CCC43C)C2C1` [Compound 19g, 3β-hydroxy-12β-(4′-(((cyclopentyloxy)carbonyl)amide)-5′-(tert-butoxy)-L-glutamate)oxy-13H-olean-28-oic acid] gave an IC50 of 720 ± 180 nM.
On to `CC1(C)CC[C@]2(C(=O)O)CC[C@]3(C)[C@H]([C@H](OC(=O)CC[C@@H](NC(=O)OC(C)(C)C)C(=O)OC(C)(C)C)CC4[C@@]5(C)CC[C@H](O)C(C)(C)C5CC[C@]43C)[C@@H]2C1` (stereo partly drawn) [Compound 10a, 3-hydroxy-12β-(4′-((tert-butoxycarbonyl)amino)-5′-(tert-butoxy)-D-glutamate)oxy-13H-olean-28-oic acid], for which the IC50 was 1950 ± 270 nM.
Molecule `CC(C)OC(=O)C(CCC(=O)OC1CC2C3(C)CCC(O)C(C)(C)C3CCC2(C)C2(C)CCC3(C(=O)O)CCC(C)(C)CC3C12)NC(=O)OC(C)(C)C` [Compound 20d, 3β-hydroxy-12β-(4′-((tert-butoxycarbonyl)amide)-5′-isopropoxy-L-glutamate)oxy-13H-olean-28-oic acid] returned an IC50 of 550 ± 90 nM.
`CC1(C)CC[C@]2(C(=O)O)CC[C@]3(C)[C@H]([C@H](OC(=O)C[C@@H](NC(=O)OC(C)(C)C)C(=O)OC(C)(C)C)CC4[C@@]5(C)CC[C@H](O)C(C)(C)C5CC[C@]43C)[C@@H]2C1` (stereo partly drawn) [Compound 9b, 3-hydroxy-12β-(3′-((tert-butoxycarbonyl)amino)-4′-(tert-butoxy)-D-aspartate)oxy-13H-olean-28-oic acid] had an IC50 of 2390 ± 350 nM.
In turn, `CCOC(=O)C(CCC(=O)OC1CC2C3(C)CCC(O)C(C)(C)C3CCC2(C)C2(C)CCC3(C(=O)O)CCC(C)(C)CC3C12)NC(=O)OC(C)(C)C` [Compound 20b, 3β-hydroxy-12β-(4′-((tert-butoxycarbonyl)amide)-5′-ethoxy-L-glutamate)oxy-13H-olean-28-oic acid] had an IC50 of 1020 ± 210 nM.
In the case of `CC(C)COC(=O)C(CCC(=O)OC1CC2C3(C)CCC(O)C(C)(C)C3CCC2(C)C2(C)CCC3(C(=O)O)CCC(C)(C)CC3C12)NC(=O)OC(C)(C)C` [Compound 20e, 3β-hydroxy-12β-(4′-((tert-butoxycarbonyl)amide)-5′-isobutoxy-L-glutamate)oxy-13H-olean-28-oic acid], the IC50 was determined as 1000 ± 170 nM.
`CC1(C)CC[C@]2(C(=O)O)CC[C@]3(C)[C@H]([C@H](OC(=O)CC[C@H](NC(=O)OC(C)(C)C)C(=O)O)CC4[C@@]5(C)CC[C@H](O)C(C)(C)C5CC[C@]43C)[C@@H]2C1` (stereo partly drawn) [Compound 11b, 3-hydroxy-12β-((S)-4′-((tert-butoxycarbonyl)amino)-4′-carboxybutanoyl)oxy-13H-olean-28-oic acid]: the IC50 was determined as 7650 ± 350 nM.
The molecule `CC1(C)CC[C@]2(C(=O)O)CC[C@]3(C)[C@H]([C@H](OC(=O)CC[C@H](N)C(=O)O)CC4[C@@]5(C)CC[C@H](O)C(C)(C)C5CC[C@]43C)[C@@H]2C1` (stereo partly drawn) [Compound 11c, 3-hydroxy-12β-((S)-4′-amino-4′-carboxybutanoyl)oxy-13H-olean-28-oic acid] showed an IC50 of 21300 ± 2600 nM.
The molecule `COC(=O)C(CCC(=O)OC1CC2C3(C)CCC(O)C(C)(C)C3CCC2(C)C2(C)CCC3(C(=O)O)CCC(C)(C)CC3C12)NC(=O)OC(C)(C)C` [Compound 20a, 3β-hydroxy-12β-(4′-((tert-butoxycarbonyl)amide)-5′-methoxy-L-glutamate)oxy-13H-olean-28-oic acid] came in with an IC50 of 1100 ± 190 nM.
Regarding `CC(C)OC(=O)NC(CCC(=O)OC1CC2C3(C)CCC(O)C(C)(C)C3CCC2(C)C2(C)CCC3(C(=O)O)CCC(C)(C)CC3C12)C(=O)OC(C)(C)C` [Compound 19d, 3β-hydroxy-12β-(4′-((isopropoxycarbonyl)amide)-5′-(tert-butoxy)-L-glutamate)oxy-13H-olean-28-oic acid], the IC50 was 400 to 500 nM and 470 nM.
With `CCC(C)OC(=O)C(CCC(=O)OC1CC2C3(C)CCC(O)C(C)(C)C3CCC2(C)C2(C)CCC3(C(=O)O)CCC(C)(C)CC3C12)NC(=O)OC(C)(C)C` [Compound 20f, 3β-hydroxy-12β-(4′-((tert-butoxycarbonyl)amide)-5′-(sec-butoxy)-L-glutamate)oxy-13H-olean-28-oic acid] the figure was 1010 ± 180 nM.
The molecule `CCC(C)OC(=O)NC(CCC(=O)OC1CC2C3(C)CCC(O)C(C)(C)C3CCC2(C)C2(C)CCC3(C(=O)O)CCC(C)(C)CC3C12)C(=O)OC(C)(C)C` [Compound 19f, 3β-hydroxy-12β-(4′-((sec-butoxycarbonyl)amide)-5′-(tert-butoxy)-L-glutamate)oxy-13H-olean-28-oic acid] came in with an IC50 of 600 ± 40 nM.
`CC(C)COC(=O)NC(CCC(=O)OC1CC2C3(C)CCC(O)C(C)(C)C3CCC2(C)C2(C)CCC3(C(=O)O)CCC(C)(C)CC3C12)C(=O)OC(C)(C)C` [Compound 19e, 3β-hydroxy-12β-(4′-((isobutoxycarbonyl)amide)-5′-(tert-butoxy)-L-glutamate)oxy-13H-olean-28-oic acid] returned an IC50 of 920 ± 140 nM.
For `CC1(C)CC[C@]2(C(=O)O)CC[C@]3(C)[C@H]([C@H](OC(=O)C[C@@H](CC(=O)OC(C)(C)C)NC(=O)OC(C)(C)C)CC4[C@@]5(C)CC[C@H](O)C(C)(C)C5CC[C@]43C)[C@@H]2C1` (stereo partly drawn) [Compound 10c, 3-hydroxy-12β-((S)-3′-((tert-butoxycarbonyl)amino)-5′-(tert-butoxy)-5-oxopentanoyl)oxy-13H-olean-28-oic acid], the IC50 was 1340 ± 230 nM.
On to `CCCOC(=O)NC(CCC(=O)OC1CC2C3(C)CCC(O)C(C)(C)C3CCC2(C)C2(C)CCC3(C(=O)O)CCC(C)(C)CC3C12)C(=O)OC(C)(C)C` [Compound 19c, 3β-hydroxy-12β-(4′-((propoxycarbonyl)amide)-5′-(tert-butoxy)-L-glutamate)oxy-13H-olean-28-oic acid], for which the IC50 is 400 to 500 nM and 450 nM.
For the molecule `CC1(C)CCC2(C(=O)O)CCC3(C)C(C(OC(=O)CCC(NC(=O)Oc4ccccc4)C(=O)OC(C)(C)C)CC4C5(C)CCC(O)C(C)(C)C5CCC43C)C2C1` [Compound 19h, 3β-hydroxy-12β-(4′-((phenoxycarbonyl)amide)-5′-(tert-butoxy)-L-glutamate)oxy-13H-olean-28-oic acid], the IC50 is 2220 nM and 2180 nM.
On to `CC1(C)CC[C@]2(C(=O)O)CC[C@]3(C)[C@H]([C@H](OC(=O)C[C@H](NC(=O)OC(C)(C)C)C(=O)OC(C)(C)C)CC4[C@@]5(C)CC[C@H](O)C(C)(C)C5CC[C@]43C)[C@@H]2C1` (stereo partly drawn) [Compound 9a, 3-hydroxy-12β-(3′-((tert-butoxycarbonyl)amino)-4′-(tert-butoxy)-L-aspartate)oxy-13H-olean-28-oic acid], for which the IC50 stood at 950 ± 140 nM.
The molecule `CC1(C)CC[C@]2(C(=O)O)CC[C@]3(C)[C@H]([C@H](OC(=O)CC[C@H](N)C(=O)OC(C)(C)C)CC4[C@@]5(C)CC[C@H](O)C(C)(C)C5CC[C@]43C)[C@@H]2C1` (stereo partly drawn) [Compound 11a, 3-hydroxy-12β-((S)-4′-amino-5′-(tert-butoxy)-5-oxopentanoyl)oxy-13H-olean-28-oic acid] returned a half-inhibitory concentration (IC50) of 2950 ± 680 nM.
Then `CCOC(=O)NC(CCC(=O)OC1CC2C3(C)CCC(O)C(C)(C)C3CCC2(C)C2(C)CCC3(C(=O)O)CCC(C)(C)CC3C12)C(=O)OC(C)(C)C` [Compound 19b, 3β-hydroxy-12β-(4′-((ethoxycarbonyl)amide)-5′-(tert-butoxy)-L-glutamate)oxy-13H-olean-28-oic acid], with 570 ± 360 nM.
For the molecule `CC1(C)CCC2(C(=O)O)CCC3(C)C(C(OC(=O)CCC(NC(=O)OC(C)(C)C)C(=O)OC4CCCC4)CC4C5(C)CCC(O)C(C)(C)C5CCC43C)C2C1` [Compound 20g, 3β-hydroxy-12β-(4′-((tert-butoxycarbonyl)amide)-5′-cyclopentyloxy-L-glutamate)oxy-13H-olean-28-oic acid], the IC50 is 820 ± 110 nM.
Consider `CCCOC(=O)C(CCC(=O)OC1CC2C3(C)CCC(O)C(C)(C)C3CCC2(C)C2(C)CCC3(C(=O)O)CCC(C)(C)CC3C12)NC(=O)OC(C)(C)C` [Compound 20c, 3β-hydroxy-12β-(4′-((tert-butoxycarbonyl)amide)-5′-propoxy-L-glutamate)oxy-13H-olean-28-oic acid], for which the IC50 worked out at 560 ± 130 nM.
